Measured values as given in US20160106692A1 (priority 2014, published 2016).
Entries after “also recorded” stand apart in the source; their conditions may differ.

Legend:
[1] = test system: Influenza Virus A/Maryland/04/2011 H1N1; format: cell-based
[2] = test system: Influenza Virus A/California/07/2009 H1N1; format: cell-based

CCOC(=O)C1=C[C@@H](OC(CC)CC)[C@H](NC(C)=O)[C@@H](N)C1 [Oseltamivir]
plaque inhibition, result in words [1]: only partially sensitive; also recorded: reduced oseltamivir susceptibility
plaque inhibition, result in words [2]: sensitive to this drug to 1 μM; also recorded: showed inhibitory effects
